Results taken from ChEMBL document CHEMBL1137575, “Target specific virtual screening: optimization of an estrogen receptor screening platform” (J Med Chem, 2007).
pIC50: −log10 of the molar value. Activity calls are given as the source filed them. The rule behind the calls is not given here.

What was measured:
[1] = species: Homo sapiens; experiment: Selectivity for ERalpha over ERbeta
[2] = target: T1, Estrogen receptor (Homo sapiens, UniProt P03372); experiment: Displacement of fluoromone from human recombinant ERalpha by fluorescence polarization assay
T1 sequence (P03372 whole entry): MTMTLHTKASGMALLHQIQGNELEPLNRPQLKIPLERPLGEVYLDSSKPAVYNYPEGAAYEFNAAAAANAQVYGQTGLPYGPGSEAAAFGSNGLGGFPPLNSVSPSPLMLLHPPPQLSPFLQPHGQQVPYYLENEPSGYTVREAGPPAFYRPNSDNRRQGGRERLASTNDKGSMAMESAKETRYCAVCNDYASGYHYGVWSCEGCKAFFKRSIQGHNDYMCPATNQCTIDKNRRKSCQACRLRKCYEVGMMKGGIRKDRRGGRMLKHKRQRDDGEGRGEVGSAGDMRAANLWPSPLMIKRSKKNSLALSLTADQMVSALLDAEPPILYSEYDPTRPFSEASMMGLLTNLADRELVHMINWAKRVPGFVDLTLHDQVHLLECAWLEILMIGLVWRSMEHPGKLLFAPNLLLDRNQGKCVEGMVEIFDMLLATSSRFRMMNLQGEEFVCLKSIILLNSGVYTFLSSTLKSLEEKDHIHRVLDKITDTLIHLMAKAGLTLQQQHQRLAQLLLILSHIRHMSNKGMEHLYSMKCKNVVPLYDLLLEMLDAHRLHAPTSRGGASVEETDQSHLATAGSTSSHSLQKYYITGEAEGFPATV

[3] = system: MCF7; experiment: Cytotoxicity against MCF7 cells after 72 hrs by LDH assay; format: functional, cell-based; details: Homo sapiens
[4] = system: MCF7; experiment: Antiproliferative activity against MCF7 cells after 72 hrs by MTT assay; format: functional, Homo sapiens
[5] = target: Estrogen receptor beta (Homo sapiens, UniProt Q92731); experiment: Displacement of fluoromone from human recombinant ERbeta by fluorescence polarization assay
Chain of Estrogen receptor beta (Q92731 whole entry): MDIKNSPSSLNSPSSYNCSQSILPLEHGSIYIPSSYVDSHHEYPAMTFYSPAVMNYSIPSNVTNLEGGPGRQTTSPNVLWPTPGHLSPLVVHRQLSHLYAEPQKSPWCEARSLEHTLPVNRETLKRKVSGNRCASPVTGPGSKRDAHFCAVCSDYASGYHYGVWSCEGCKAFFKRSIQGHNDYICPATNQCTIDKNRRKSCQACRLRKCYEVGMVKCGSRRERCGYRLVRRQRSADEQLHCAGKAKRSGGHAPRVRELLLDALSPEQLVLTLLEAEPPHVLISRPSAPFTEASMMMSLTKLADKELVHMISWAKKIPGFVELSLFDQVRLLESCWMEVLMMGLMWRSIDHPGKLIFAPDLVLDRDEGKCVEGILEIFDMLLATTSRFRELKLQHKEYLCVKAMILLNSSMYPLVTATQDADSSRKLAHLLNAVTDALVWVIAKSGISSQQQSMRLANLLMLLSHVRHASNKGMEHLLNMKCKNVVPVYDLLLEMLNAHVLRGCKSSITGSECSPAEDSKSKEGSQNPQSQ

Row | Ratio IC50 [1] | pIC50 [2] | pIC50 [5] | Structure (SMILES) | Activity [3] | Activity [4] [µM]
1 | 4.4 | 5.96 | 5.21 | COc1cc(C2Nc3ccccc3C(=O)N2Cc2ccccc2)ccc1O (stereo unspecified) | Active | 15
2 | 17 | 7.25 | 6.04 | COC(=O)C1=C(N)Oc2cc(O)ccc2C1c1ccc(OCc2ccc(C)cc2)cc1 (stereo unspecified) | Active | 7
3 |  |  |  | CC/C(=C(\c1ccccc1)c1ccc(OCCN(C)C)cc1)c1ccccc1 [TAMOXIFEN] |  | 4.6

Row | Structure (SMILES) | Ratio IC50 [1] | pIC50 [2] | pIC50 [5] | Activity [3] | Activity [4] [µM]
4 | COC(=O)C1=C(N)Oc2cc(O)ccc2C1c1ccc(OCc2ccccc2F)cc1 (stereo unspecified) | 13.7 | 7.28 | 6.11 | Active | 11.4
